Source: article PMC2151243 (British Journal of Cancer, 1998)
Values joined by “and” are separate entries in the source; they are usually repeats but may differ in a detail not shown here. Equal values may be shown once. “Also recorded” adds a separate entry of the source.

How the values were obtained:
[1] = mouse, in vivo; cited from earlier work
[2] = tested on: Sheep antiserum to ZD1694 (S37B14); test: Radioimmunoassay: cross-reaction of S37B14 antiserum; format: binding; details: for Cross-reaction of S37B14 antiserum (%): relative amount of ZD1694 and cross-reactant required to inhibit antibody binding of radiolabel by 50%
Text: (§1) British Joumal of Cancer (1998) 77(2), 221-226 ? […] Tomudex is now available for the treat- ment of advanced colorectal cancer in several countries. […] The limit of detection of this assay for plasma was 0.2 g1M when a solid-phase extraction was used. […] Separation of polyglutamated metabo- lites by HPLC was followed by quantitation in fractions using radiochemical analysis (Jackman et al, 1991c; Gibson et al, 1993) or by measuring inhibition of TS (Sikora et al, 1988). […] The dog was chosen as an additional model, because, unlike mice, plasma levels of thymidine are low and this species is much more sensitive to the effects of TS inhibitors than rodents. […] Acetonitrile was from Fisons, Dextran T70 from Pharmacia and all other chemicals from Sigma. Solutions were prepared with deionized water. […] Stock solutions (10 mM) were prepared in 0.15 M sodium bicar- bonate and stored at -20?C. For the mouse studies, the drug was formulated in 0.05 M sodium bicarbonate and the pH was adjusted to 8.5-9.0. Radioimmunoassay The assay diluent was 0.05 M phosphate buffer pH 7.4, containing 1 g 1-' gelatin and 6 g 1-' sodium chloride (PBSG). Initially, all dilutions and dispensing of standards and samples were made with a Dilutrend diluter, but a Multiprobe (Canberra Packard) auto- mated liquid-handling system was later programmed to perform these steps in the assay. […] Samples were assayed at three appropriate dilutions to ensure that the results of at least two dilutions fell on the linear portion of the stan- dard curve, and samples were reassayed at different dilutions if necessary. The antiserum was diluted in PBSG so that approxi- mately 40% of total radioactivity was bound (Bo) to antibody. This dilution was previously determined from an antiserum dilution curve and was 1:300 to 1:500 depending on the batch of radiolabel used. […] Diluted standards and samples (0.1 ml) were added in duplicate to numbered LP3 tubes (Luckham) or to deep-well blocks (Beckman) with 0.3 ml of assay diluent, 0.1 ml of diluted anti- serum and 0.1 ml of diluted label, mixed and left to stand in iced water for 1 h. Each assay included total counts and non-specific- binding tubes, containing only the radiolabel and buffer, and zero- standard-binding tubes (Bo), which contained only radiolabel and antiserum. The antibody-bound radiolabel was separated from unbound radiolabel by the addition of ice-cold dextran-coated charcoal [2.5% (w/v) activated charcoal (Sigma) coated with 0.25% (w/v) Dextran T-70 (Pharmacia)] to all but the total-counts tubes for 10 min. After centrifugation at 1000 g for 10 min at 4?C, 0.5 ml aliquots of supematant were taken from each assay tube for scintillation counting in 4.0 ml of Ultima gold scintillant (Canberra-Packard). […] The radioimmunoassays were carried out at the Institute of Cancer Research. […] The limit of detection for 6-8 x 10^6 cells is 0.05 µM intracellular concentration. […] Plasma was immediately separated from the; approximately blood by microcentrifugation and stored at -20?C until assayed. Liver and kidney samples were immediately frozen on solid carbon dioxide. Gut epithelium samples were obtained 1 day after drug treatment.

[3] = target: Thymidylate synthase (TS; EC 2.1.1.45), mouse enzyme; details: ref Jackman et al, 1991a, Gibson et al, 1993, read-out: Kj for mouse enzyme; cited from earlier work
[4] = set-up: method as in Aherme et al, 1996b; details: ref Aherme et al, 1996b; cited from earlier work
[5] = Pharmacokinetic studies in dogs: plasma and tissue levels by radioimmunoassay; format: in vivo, Alderley Park Beagle dogs
Text: British Joumal of Cancer (1998) 77(2), 221-226 ? […] Tomudex is now available for the treat- ment of advanced colorectal cancer in several countries. […] The limit of detection of this assay for plasma was 0.2 g1M when a solid-phase extraction was used. […] Separation of polyglutamated metabo- lites by HPLC was followed by quantitation in fractions using radiochemical analysis (Jackman et al, 1991c; Gibson et al, 1993) or by measuring inhibition of TS (Sikora et al, 1988). […] The dog was chosen as an additional model, because, unlike mice, plasma levels of thymidine are low and this species is much more sensitive to the effects of TS inhibitors than rodents. […] Acetonitrile was from Fisons, Dextran T70 from Pharmacia and all other chemicals from Sigma. Solutions were prepared with deionized water. […] Stock solutions (10 mM) were prepared in 0.15 M sodium bicar- bonate and stored at -20?C. For the mouse studies, the drug was formulated in 0.05 M sodium bicarbonate and the pH was adjusted to 8.5-9.0. Radioimmunoassay The assay diluent was 0.05 M phosphate buffer pH 7.4, containing 1 g 1-' gelatin and 6 g 1-' sodium chloride (PBSG). […] The antiserum was diluted in PBSG so that approxi- mately 40% of total radioactivity was bound (Bo) to antibody. This dilution was previously determined from an antiserum dilution curve and was 1:300 to 1:500 depending on the batch of radiolabel used. […]

[6] = set-up: method as in Jodrell et al, 1991; details: mice, 100 mg kg-1, HPLC; ref Jodrell et al, 1991; cited from earlier work
L1210 cells = tested on: L1210 cells; set-up: method as in Jackman et al, 1995c; details: L1210, 0.1 µM, 24 h; ref Jackman et al, 1995c; cited from earlier work
[7] = tested on: L5178Y TK-/- mouse lymphoma; set-up: method as in Jackman et al, 1991b; details: single i.p. injection 10 mg kg-1; ref Jackman et al, 1991b; cited from earlier work
[8] = Mouse pharmacokinetic studies: plasma and tissue levels by radioimmunoassay; format: in vivo, female DBA2 mice; details: female, plasma, ip
Text: as §1

[9] = set-up: method as in Judson et al, 1996; details: man, ref Judson et al, 1996, cited from earlier work
L1210:RD1694 cells = tested on: L1210:RD1694 cells; set-up: method as in Jackman et al, 1995c; details: resistant line, after 24 h; ref Jackman et al, 1995c; cited from earlier work
[10] = set-up: method as in Jackman et al, 1995a; details: mice, ref Jackman et al, 1995a, cited from earlier work
[11] = tested on: thymidine salvage competent models; set-up: method as in Jackman et al, 1991a and b; details: repeated treatment over 5 days; ref Jackman et al, 1991a and b; cited from earlier work

## C#CCN(Cc1cc2c(=O)[nH]c(C)nc2cc1C)c1ccc(C(=O)N[C@@H](CCC(=O)N[C@H](CCC(=O)O)C(=O)O)C(=O)O)c(F)c1 [CB30900]
[1]
  liver levels relative to plasma levels: sixfold higher

## Cc1nc2ccc(CN(C)c3ccc(C(=O)NC(CCC(=O)NC(CCC(=O)O)C(=O)O)C(=O)O)s3)cc2c(=O)[nH]1 (stereo not shown) [Diglutamate]
[2]
  Cross-reaction of S37B14 antiserum (%): 90%

## Cc1nc2ccc(CN(C)c3ccc(C(=O)NC(CCC(=O)NC(CCC(=O)NC(CCC(=O)NC(CCC(=O)NC(CCC(=O)NC(CCC(=O)O)C(=O)O)C(=O)O)C(=O)O)C(=O)O)C(=O)O)C(=O)O)s3)cc2c(=O)[nH]1 (stereo not shown) [Hexaglutamate]
[2]
  Cross-reaction of S37B14 antiserum (%): 100%

## Nc1nc2c(c(=O)[nH]1)N(C=O)C(CNc1ccc(C(=O)N[C@@H](CCC(=O)O)C(=O)O)cc1)CN2 (stereo partly shown) [Leucovorin]
[2]
  Cross-reaction of S37B14 antiserum (%): < 0.01%

## CN1c2c(nc(N)[nH]c2=O)NCC1CNc1ccc(C(=O)N[C@@H](CCC(=O)O)C(=O)O)cc1 (stereo partly shown) [Methyl-THFA]
[2]
  Cross-reaction of S37B14 antiserum (%): < 0.01%

## Cc1nc2ccc(CN(C)c3ccc(C(=O)N[C@@H](CCC(=O)N[C@@H](CCC(=O)N[C@@H](CCC(=O)N[C@@H](CCC(=O)N[C@@H](CCC(=O)O)C(=O)O)C(=O)O)C(=O)O)C(=O)O)C(=O)O)s3)cc2c(=O)[nH]1 [Pentaglutamate]
[2]
  Cross-reaction of S37B14 antiserum (%): 110%

## Cc1nc2ccc(CN(C)c3ccc(C(=O)NC(CCC(=O)NC(CCC(=O)NC(CCC(=O)NC(CCC(=O)O)C(=O)O)C(=O)O)C(=O)O)C(=O)O)s3)cc2c(=O)[nH]1 (stereo not shown) [Tetraglutamate]
[3]
  Ki: 1 nM
[2]
  Cross-reaction of S37B14 antiserum (%): 110%

## Cc1nc2ccc(CN(C)c3ccc(C(=O)NC(CCC(=O)NC(CCC(=O)NC(CCC(=O)O)C(=O)O)C(=O)O)C(=O)O)s3)cc2c(=O)[nH]1 (stereo not shown) [Triglutamate]
[2]
  Cross-reaction of S37B14 antiserum (%): 92%

## C#CCN(Cc1cc2c(=O)[nH]c(C)nc2cc1C)c1ccc(C(=O)N[C@@H](CCc2nnn[nH]2)C(=O)O)c(F)c1 [ZD933 1]
[4]
  tissue to plasma ratios: low tissue to plasma ratios

## Cc1nc2ccc(CN(C)c3ccc(C(=O)N[C@@H](CCC(=O)O)C(=O)O)s3)cc2c(=O)[nH]1 [ZD1694, N-[5-[N-(3,4-dihydro-2-methyl-4-oxoquinazolin-6-ylmethyl)-N-methylamino]-2-thenoyl]-L-glutamic acid]
[5]; Alderley Park Beagle, dog, plasma, iv, 0.2 mg kg-1 single i.v. bolus, 28 days after administration
  concentration at 28 day: ~0.4 ng/mL and ~0.85 nM
[5]; at 28 days, limit of detection 0.015 nmol g-1
  gastrointestinal tissue drug concentrations: near to the limit of detection; also recorded: at or near the limit of detection
[6]
  plasma half-life: ~0.5 h
L1210 cells
  intracellular concentration of ZD1694 by radioassay: 3.8 gM
[7]
  anti-tumour effect: curative
[8]; DBA2, mouse, single i.p. 1 mg kg-1, day 1
  concentration at 1 day: 2.26 ng/mL
[8]; DBA2, mouse, single i.p. 10 mg kg-1, day 1
  concentration at 1 day: 7.18 nM
[8]; DBA2, mouse, single i.p. 100 mg kg-1, day 1
  concentration at 1 day: 30.7 nM
[8]; DBA2, mouse, single i.p. 100 mg kg-1, day 4
  concentration at 4 day: 2.39 nM
[8]; mouse, DBA2 mice, 5 mg kg-1 i.p., non-compartmental model, read-out: plasma elimination phase (half-life) (converted)
  half-life: ~2.7 h
[9]; plasma
  third phase half-life: 257 h
[9]; up to 4 weeks after drug administration
  drug measured in the plasma: 1 to 10 ng/mL
L1210:RD1694 cells
  level of total drug ZD1694 estimated by radioassay: 0.44 gM
[10]; 24 h after tritiated ZD1694 5 mg kg-1
  radioactivity in the tissues present as polyglutamates: ~80%
[10]; tritiated ZD1694
  polyglutamates in mouse plasma: No polyglutamates were found
[11]
  anti-tumour effect: led to anti- tumour activity
[2]; ZD1694 standard curve, read-out: mean dose at 50% inhibition of binding
  IC50: 1.47 nM
[2]
  Cross-reaction of S37B14 antiserum (%): 100%
